Here are results for 2 molecules from patent US20070155841A1, “Preventive agent for carcinogenesis of liver cancer containing quinone-based compound as active ingredient” (Eisai Co., Ltd., priority 2004, published 2007).

The conditions of data set [1]: cited from earlier work.
The test system of another data set is leukemia cells. The note with it: in vitro, Patent Literature 1; cited from earlier work.
Data set [2] relates to liver cancer which has been treated. The note with it: Non-Patent Literature 6 and 7, cited from earlier work.
Data set [3] concerns liver cancer (hepatocellular carcinoma) in female virus cirrhosis patients. Kind of data set: Randomized clinical trial with 7-year follow-up: development of liver cancer in virus cirrhosis patients. In kind it is in vivo, human. The note with it: for Adjusted odds ratio for development of HCC (treatment group to control group): multivariate analysis adjusted for age, ALT, albumin, total bilirubin, platelet count, AFP, history of IFN-α, 95% CI 0.016-0.992, P 0.0491; for Crude odds ratio for development of HCC (treatment group to control group): univariate analysis, 95% CI 0.042-0.913, P 0.038. On the procedure:
A primary test was conducted targeting 50 female virus cirrhosis patients.
The diagnosis of cirrhosis was based on histological examination of liver specimens obtained by laparoscopy or needle biopsy performed under ultrasonic guidance.
Half were randomly assigned to receive 45 mg/day of vitamin K2 (Glakay;
Eisai Co., Tokyo, Japan) p.o., and half were assigned to the control group. Randomization was performed by placing the treatment assignments in sealed envelopes.
At the end of the first study, 21 patients in the treatment group and 19 patients in the control group agreed to participate in a longer trial. These patients were infected with the hepatitis C virus except for one patient in each group that had hepatitis B.
The clinical trial was conducted in accordance with the Helsinki Declaration and was approved by our ethics committee.
Statistical analysis was carried out with SAS software (version 8.12). The χ2 test was used to assess the homogeneity of groups. Cumulative incidences were plotted by the Kaplan-Meier method, and statistical significance of differences was analyzed by the log-rank test. Cox's regression analysis was used for univariate and multivariate analysis. In both studies, the two groups were similar with respect to age, the Child-Pugh stage, and the other clinical findings (See Table 1).

For the next data set, the system named is tumor cells. The following applies: Non-Patent Literature 5; cited from earlier work.

As for `CC(C)=CCC/C(C)=C/CC/C(C)=C/CC/C(C)=C/CC1=C(C)C(=O)c2ccccc2C1=O` [menatetrenone, 2-methyl-3-tetraprenyl-1,4-naphthoquinone], the solubility in water entry in data set [1] is recorded as “nearly insoluble in water”. The differentiation induction activity entry in the data set on leukemia cells is listed as “differentiation induction activity in leukemia cells”. For the same molecule, the “recurrence of treated liver cancer” value in data set [2] (patients who already had cancer) is on record as “suppresses recurrence of liver cancer”. For the same molecule, in data set [2] (patients with treated liver cancer), the survival percentage result is listed as “heightens the survival percentage”. Further, in data set [3] (listed as VK2), the “Adjusted odds ratio for development of HCC (treatment group to control group)” value came out at 0.126 and the “Crude odds ratio for development of HCC (treatment group to control group)” value came out at 0.195. Further, in data set [3] (listed as vitamin K2), the “Adjusted odds ratio for development of HCC (treatment group to control group)” value is 0.126 (0.016 to 0.992) and the “Crude odds ratio for development of HCC (treatment group to control group)” value was 0.195 (from 0.042 to 0.913). Also, the “cumulative incidence percentage of liver cancer patients versus control group” value in data set [3] (treatment group, 45 mg/day p.o., 7-year follow-up, Kaplan-Meier (FIG. 1)) was “much smaller than that in the control group”. For the same molecule, in data set [3] (treatment group, 45 mg/day p.o., 7-year follow-up, control group 9 of 19), the “patients who developed liver cancer” value was 2 of 21.

Consider `CC(C)=CCC/C(C)=C/CC/C(C)=C/CC/C(C)=C/CO` [geranylgeraniol], for which the induction of apoptosis entry in the data set on tumor cells was “potent inducer of apoptosis in tumor cells”.
